Assay results taken from patent US9572786B2, “Use of capsiate or dihydrocapsidate” (Catholic University Industry Academy Cooperation Foundation, priority 2007, dated 2017).

How the values were obtained:
VEGF = assay: UV-induced VEGF expression, immunohistochemical staining; type: cell-based, human; details: HaCaT cells; 25 μM; UV 100 J/m^2; 24 hours
Procedure: First, the inhibition effect of capsiate on the expression of VEGF, the typical intracellular angiogenesis factor, was evaluated by immunohistochemical staining in order to investigate the inhibition effect of capsiate on angiogenesis.
HaCaT cells were placed on a 14 mm culture slide and cultured for 24 hours in DMEM containing 10% FBS. Subsequently, the cells were cultured for 24 hours in DMEM containing 1% FBS until starvation. Then, after treating with 25 μM capsiate for 30 minutes, followed by washing 3 times with PBS, UV was irradiated at an intensity of 100 J/m^2. Immediately after the UV irradiation, the cells were washed again with PBS and further cultured for 24 hours in DMEM containing 1% FBS, which was treated with capsiate at the same concentration as in the pre-treatment. The cells were fixed for 5 minutes using methanol and immunohistochemical staining was carried out in the same manner as in Example 2-3. For VEGF detection, rabbit anti-VEGF IgG antibody (Santa Cruz, USA) and Alexa 488-labeled anti-rabbit-IgG secondary antibody (Invitrogen, USA) were used.

MMP-2 = assay: UV-induced MMP-2 mRNA expression, RT-PCR; type: cell-based, human; details: HaCaT cells; 10, 25, 50 μM; UV 100 J/m^2; 36 hours
Procedure: The inhibition effect of capsiate on the expression of MMP-2 and MMP-9, which induce angiogenesis, was investigated through measurement of mRNA expression by RT-PCR and protein expression and activity measurement by zymography.
In order to investigate the inhibition effect of capsiate on MMP expression, 5×10^5 HaCaT cells were placed on a 60 mm Petri dish and cultured for 24 hours in DMEM containing 10% FBS. Subsequently, the cells were cultured for 24 hours in DMEM containing 1% FBS until starvation. Then, after treating with capsiate at different concentrations (10 μM, 25 μM, 50 μM) for 30 minutes, followed by washing 3 times with PBS, UV was irradiated at an intensity of 100 J/m^2. Immediately after the UV irradiation, the cells were washed again with PBS and further cultured for 36 hours in DMEM containing 1% FBS, which was treated with capsiate at the same concentration as in the pre-treatment. The degree of intracellular mRNA expression for MMP-2 and MMP-9 was measured by RT-PCR in the same manner as in Example 3. The degree of MMP expression was compared with that of the non-treated group.

MMP-9 = assay: Zymography of secreted MMP-9 after UV; type: cell-based, human; details: HaCaT culture medium; 10, 25, 50 μM; UV 100 J/m^2; 36 hours
Procedure: Zymography was carried out in order to investigate the decrease of expression and activity of MMP-2 and MMP-9 in protein level.
5×10^5 HaCaT cells were placed on a 60 mm Petri dish and cultured for 24 hours in DMEM containing 10% FBS. Subsequently, the cells were cultured for 24 hours in DMEM containing 1% FBS until starvation. Then, after treating with capsiate at different concentrations (10 μM, 25 μM, 50 μM) for 30 minutes, followed by washing 3 times with PBS, UV was irradiated at an intensity of 100 J/m^2. Immediately after the UV irradiation, the cells were washed again with PBS and further cultured for 36 hours in DMEM containing 1% FBS, which was treated with capsiate at the same concentration as in the pre-treatment. After collecting the culture medium, the activity of MMP-2 and MMP-9 proteins secreted from the cells into the medium was measured. To this end, the mediums obtained from the same number of cells were concentrated to the same volume, and the temperature was maintained at 4° C. in order to avoid the effect on the protein activity.
Thus prepared sample was subjected to electrophoresis at 4° C. using 7.5% acrylamide gel containing gelatin but without sodium dodecyl sulfate (SDS). […]

hairless mouse (SKH-1) = assay: UV-induced skin damage in hairless mouse (observation, hematoxylin-eosin staining); type: in vivo; details: 200 μL of 1 mM in acetone topically every 24 hours, UV 2.5 kJ/m^2 4 times
Procedure: In order to confirm the in vitro experiment result performed on the human keratinocyte HaCaT cells in an animal model, experiment was carried out as follows using hairless mouse (SKH-1). Test groups were as follows: non-treated group—treated with acetone only without UV irradiation; test group A—treated with 200 μL of 1 mM capsiate dissolved in acetone every 24 hours without UV irradiation; control group—treated with UV and acetone; test group B—treated with UV and 200 μL of 1 mM capsiate dissolved in acetone every 24 hours (Unspecified conditions are the same as in Examples 5-7.).
Capsiate was applied on the back of the mouse. 1 hour later, UV was irradiated at an intensity of 2.5 kJ/m^2. 1 hour later, capsiate was applied again at the same concentration in order to prevent rash which may occur immediately after UV irradiation. Thereafter, capsiate was applied every 24 hours and UV irradiation was carried out every other day at an intensity of 2.5 kJ/m^2 for 4 times. In order to investigate the change of tissue and intracellular mechanism (signaling), the mouse was euthanized 1 hour after the final UV irradiation. Skin tissue was taken from the back of the mouse and subjected to skin biopsy following observation.
Hematoxylin-eosin staining was carried out in order to investigate the overall change in the skin tissue.

IL-2 = assay: Secretion of IL-2 by T cells, ELISA; type: cell-based, C57/BL6 mouse; details: mouse spleen T cells of Example 14-1; vs control group
Description: In order to investigate the effect of capsiate on activation of T cells, the production of IL-2 by the T cells the proliferation of which was induced in Example 14-1 was compared with the non-capsiate-treated control group. IL-2 is a T cell proliferation factor secreted from stimulated T cells and acts as a cytokine affecting the proliferation of T helper cells, cytotoxic T (TC) cells and natural killer (NK) cells, activation of T cells, proliferation of B cells, and production of antibody.
Specifically, the degree of IL-2 production was measured by ELISA. IL-2 recognition antibody was attached on a 96-well plate. Next day, after suppressing non-specific recognition using blocking buffer (PBS containing 5% BSA), cultured T cells were added to the plate and incubated at room temperature for 4 hours. Subsequently, after incubating using biotinylated IL-2 secondary antibody (Becton Dikinson, USA), absorbance (540 nm) was measured using an ELISA reader using biotin-recognizing enzyme antibody (streptavidine-conjugated HRP, Becton Dikinson, USA), while varying the substrate.

## COc1cc(COC(=O)CCCC/C=C/C(C)C)ccc1O [capsiate]
VEGF
  UV-induced VEGF expression in the cytoplasm: decreased
MMP-2
  UV-induced mRNA expression of MMP-2: decreased
MMP-9
  expression and activity of MMP-9 (zymography): inhibited expression and activity
Hairless mouse (SKH-1)
  blood vessels and edema (hematoxylin-eosin staining): also decreased
  hyperplasia in the epidermis (hematoxylin-eosin staining): decreased remarkably
Hairless mouse (SKH-1); vs UV control
  blood vessel thickness and blood in back skin tissue: less blood vessel thickness and less blood
  size and depth of wound induced by UV irradiation: less severe
IL-2
  IL-2 production by T cells: significantly decreased
